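Exposure lasted 48 hours, with cells grown in 96-well plates and compounds tested at five concentrations. GI50 = concentration required for 50% inhibition of growth.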 Active and inactive are the calls of the source. Cut-off read from the data, not from the text of the source: active = GI50 up to about 1.1 µM and inactive = higher.
How the values were obtained:
Assay in all cases: DTP human tumour cell line panel, 48 h
[1] = tested on: A498
[2] = tested on: UACC-62
[3] = tested on: RXF 393
[4] = tested on: OVCAR-8
[5] = tested on: SN12C
[6] = tested on: OVCAR-3
[7] = tested on: HOP-62
[8] = tested on: SNB-19
[9] = tested on: MCF7
[10] = tested on: BT-549
[11] = tested on: Malme-3M
[12] = tested on: CAKI-1
[13] = tested on: HL-60
[14] = tested on: HT-29
[15] = tested on: SK-OV-3
[16] = tested on: NCI-H460
[17] = tested on: SR
[18] = tested on: EKVX
[19] = tested on: NCI/ADR-RES

Compound | GI50 [1] | GI50 [2] | GI50 [3] | GI50 [4] | GI50 [5] | GI50 [6] | GI50 [7] | GI50 [8] | GI50 [9] | GI50 [10] | GI50 [11] | GI50 [12] | GI50 [13] | GI50 [14] | GI50 [15] | GI50 [16] | GI50 [17] | GI50 [18] | GI50 [19]
Cc1cc(=O)oc2cc(OCc3c(F)cccc3Cl)ccc12 | > 100 µM (inactive) | 1.12 µM (inactive) | 7.23 µM (inactive) | > 100 µM (inactive) | > 100 µM (inactive) | > 100 µM (inactive) | 13 µM (inactive) | 20.9 µM (inactive) | 4.6 µM (inactive) | 28.2 µM (inactive) | 0.728 µM (active) | 17.2 µM (inactive) | 3.76 µM (inactive) | – | – | – | – | – | –
O=C(NN1C(=O)C(Cl)C1c1cccc(Cl)c1)c1ccccc1O (centres undefined) | > 100 µM (inactive) | > 100 µM (inactive) | > 100 µM (inactive) | > 100 µM (inactive) | > 100 µM (inactive) | > 100 µM (inactive) | – | > 100 µM (inactive) | – | – | > 100 µM (inactive) | – | > 100 µM (inactive) | > 100 µM (inactive) | > 100 µM (inactive) | > 100 µM (inactive) | – | – | –
O=C(/N=N/c1ccc(Cl)cc1Cl)NNc1ccc(Cl)cc1Cl | 15.7 µM (inactive) | 13.9 µM (inactive) | – | 17.7 µM (inactive) | 16.4 µM (inactive) | 15.9 µM (inactive) | 1.75 µM (inactive) | 28.6 µM (inactive) | – | 14.8 µM (inactive) | 18.6 µM (inactive) | 19.6 µM (inactive) | 20.7 µM (inactive) | 37.2 µM (inactive) | – | 16.4 µM (inactive) | 23.2 µM (inactive) | – | –
CC1=C(C(=O)CC(=O)C(=O)Nc2cccc(C)c2C)Sc2ccccc2N1 | – | > 100 µM (inactive) | > 100 µM (inactive) | > 100 µM (inactive) | > 100 µM (inactive) | > 100 µM (inactive) | > 100 µM (inactive) | > 100 µM (inactive) | – | – | > 100 µM (inactive) | > 100 µM (inactive) | > 100 µM (inactive) | > 100 µM (inactive) | > 100 µM (inactive) | > 100 µM (inactive) | – | > 100 µM (inactive) | –
O=P1(Oc2ccc(Cl)cc2)OCCS1 (centres undefined) | > 100 µM (inactive) | > 100 µM (inactive) | > 100 µM (inactive) | > 100 µM (inactive) | > 100 µM (inactive) | – | > 100 µM (inactive) | > 100 µM (inactive) | – | > 100 µM (inactive) | > 100 µM (inactive) | – | 80.7 µM (inactive) | > 100 µM (inactive) | > 100 µM (inactive) | > 100 µM (inactive) | > 100 µM (inactive) | > 100 µM (inactive) | > 100 µM (inactive)
CC(C)CCNC(=O)c1ccc(CNC(=O)/C=C/c2ccc3ccccc3c2)cc1 | > 100 µM (inactive) | > 100 µM (inactive) | > 100 µM (inactive) | > 100 µM (inactive) | > 100 µM (inactive) | > 100 µM (inactive) | > 100 µM (inactive) | > 100 µM (inactive) | > 100 µM (inactive) | – | – | > 100 µM (inactive) | > 100 µM (inactive) | – | > 100 µM (inactive) | > 100 µM (inactive) | > 100 µM (inactive) | > 100 µM (inactive) | > 100 µM (inactive)
c1ccc(C(C2=Nc3cccc4cccc(c34)N2)c2ccccc2)cc1 | – | 17.5 µM (inactive) | 27.3 µM (inactive) | 30.7 µM (inactive) | 14.8 µM (inactive) | 20.3 µM (inactive) | 23.1 µM (inactive) | 37.8 µM (inactive) | 31.8 µM (inactive) | 22 µM (inactive) | 27.8 µM (inactive) | 22.6 µM (inactive) | 31.7 µM (inactive) | 23.2 µM (inactive) | 21.5 µM (inactive) | 24.7 µM (inactive) | – | 30.3 µM (inactive) | 21.2 µM (inactive)
COC1=CC(=O)C(O)=C(C[C@@]2(C)[C@@H]3CCC[C@H](COC(=O)CCCCCNC(=O)OC(C)(C)C)[C@@]3(C)CC[C@@H]2C)C1=O | > 10 µM (inactive) | – | 3.67 µM (inactive) | 6.73 µM (inactive) | > 10 µM (inactive) | 5.92 µM (inactive) | 5.08 µM (inactive) | 3.77 µM (inactive) | 4.22 µM (inactive) | – | 5.9 µM (inactive) | 4.61 µM (inactive) | 3.04 µM (inactive) | 5.12 µM (inactive) | > 10 µM (inactive) | – | 5.22 µM (inactive) | 8.28 µM (inactive) | –
COC(=O)c1cc(CC2Cc3cc4c(cc3C2)CCC4)cc2c1CCC2 | > 100 µM (inactive) | – | 62.2 µM (inactive) | > 100 µM (inactive) | > 100 µM (inactive) | > 100 µM (inactive) | > 100 µM (inactive) | > 100 µM (inactive) | 89.1 µM (inactive) | – | > 100 µM (inactive) | > 100 µM (inactive) | 56.6 µM (inactive) | 49 µM (inactive) | > 100 µM (inactive) | > 100 µM (inactive) | 29.5 µM (inactive) | > 100 µM (inactive) | > 100 µM (inactive)
